# Data: patent publication US10577315B2, “Compositions and methods for treatment of prostate carcinoma” (Pellficure Pharmaceuticals, Inc., priority 2014, dated 2020)
# Test system: PTEN-P2/GFP prostate cancer cells
# Test: Effect of 1,4-naphthoquinone analogs on PTEN-P2/GFP cell proliferation (WST-1 cell viability, 24 h)
# Type: cell-based
# Settings: Mus musculus, WST-1, medium with 10% FBS and DHT, read-out: PTEN-P2/GFP cell proliferation, percent of control
# Description: Cells are grown in phenol red-free DMEM medium containing 10% FBS, 2 mM L-glutamine, 100 U/ml penicillin/100 μg/ml streptomycin, insulin-selenium-transferrin (5 μg/ml insulin), and DHT 10^−8M final. Androgen withdrawal is achieved by not adding DHT to the medium. Cells are maintained in a humidified incubator at 37° C. and 5% CO2. G418 (100 μg/ml) is added to maintain stable expression of H2B-GFP.
# 100 microliters of PTEN-P2/GFP prostate cancer cells were plated at a density of 8000 cells/well in 96-well plates (triplicates) in growing medium containing 10% Fetal Bovine Serum and DHT. The next day, increasing concentrations of a 1,4-naphthoquinone analog (diluted from 10 mM DMSO stock solutions) were added. DMSO used as solvent for all analogs, was kept constant through the 96-well plates. The control consisted of DMSO alone. The cells were subsequently incubated for 24 hours at 37° C. and 5% CO2 in normal cell growth conditions. Cell viability was assessed by adding 9 μL/well of WST-1 reagent (Clontech), which measured mitochondrial activity of live cells. […] The incubation time was 3 hours at 37° C. Optical density of the cell samples was measured at 460 nm, by using plate reader Spectra Max 250 (Molecular Devices). The drug was determined to be cytotoxic when OD values show an inverse correlation with analog concentrations. The results are shown in TABLES 3.1-3.4, FIGS. 2A-2E, and FIGS. 3A-3D.
SMILES,activity at 1 µM [%],activity at 2 µM [%],activity at 3 µM [%],activity at 4 µM [%],activity at 5 µM [%],activity at 6 µM [%],activity at 7 µM [%],activity at 10 µM [%],activity at 25 µM [%],activity at 50 µM [%],activity at 15 µM [%],activity at 1.2 µM [%],activity at 2.5 µM [%],activity at 7.5 µM [%],activity at 20 µM [%]
"COc1ccc(OC)c2c1C(=O)C=CC2=O [Analog F52, 5,8-dimethoxy-1,4-naphthoquinone]",106,108,112,113,111,106,93.3,52.1,11.2,11.9,–,–,–,–,–
"CC(=O)NC1=C(Cl)C(=O)c2ccccc2C1=O [Analog F37, 2-N-acetylamino-3-chloro-1,4-naphthoquinone]",–,101,94.4,86.6,71.4,55.7,36.7,17.6,13.6,–,13.9,–,–,–,–
"COC(=O)CSC1=C(C)C(=O)c2cccc(O)c2C1=O [Analog F46, Methyl 2-((8-hydroxy-3-methyl-1,4-dioxo-1,4-dihydronaphthalen-2-yl)thio)acetate]",95.4,90.6,84.9,75,66.1,60.6,54.7,33,13,13.6,–,–,–,–,–
"O=C1C=C(Oc2ccc([N+](=O)[O-])cc2)C(=O)c2ccccc21 [Analog F12, 2-(4-nitrophenoxy)naphthalene-1,4-dione]",–,–,–,–,118,–,–,115,–,–,78.8,122,118,117,8.27
"COC(=O)c1ccccc1OC1=C(Br)C(=O)c2ccccc2C1=O [Analog F19, methyl 3-bromo-1,4-naphthoquinon-2-yl-salicylate]",–,99.5,94.3,85.2,81,68.2,59.3,32.3,12.1,–,20.1,–,–,–,–
"CC(=O)NC1=C(Oc2ccc(OCc3ccccc3)cc2)C(=O)c2ccccc2C1=O [Analog F42, N-(3-(4-(benzyloxy)phenoxy)-1,4-dioxo-1,4-dihydronaphthalen-2-yl)acetamide]",–,101,101,97.6,89.1,83.8,75.3,37.5,16.6,–,20.2,–,–,–,–
"O=C1C(Br)=C(Oc2ccc(OC3=C(Br)C(=O)c4ccccc4C3=O)cc2)C(=O)c2ccccc21 [Analog F57, 3,3′-(1,4-phenylenebis(oxy))bis(2-bromonaphthalene-1,4-dione)]",–,98.2,98,98.6,98.9,95.7,86.7,61.4,17.4,–,42.8,–,–,–,–
"COc1ccc(OC2=CC(=O)c3ccccc3C2=O)c(Cl)c1 [Analog F16, 2-(2-chloro-4-methoxyphenoxy)naphthalene-1,4-dione]",–,–,–,–,82.5,–,–,0.73,–,–,1.43,92.8,97,12,2.3
"O=C1C(Br)=C(Oc2ccccc2)C(=O)c2ccccc21 [Analog F18, 2-bromo-3-phenoxy-1,4-naphthoquinone]",–,96.6,92.5,85.5,69.8,53.5,45,20.3,9.64,–,11.1,–,–,–,–
"O=C1C=C(Oc2ccc(Cl)cc2Cc2ccccc2)C(=O)c2ccccc21 [Analog F13, 2-(2-benzyl-4-chlorophenoxy)naphthalene-1,4-dione]",–,–,–,–,60.5,–,–,1.69,–,–,2.19,129,119,17.5,2.53
"COc1cccc2c1C(=O)C=C(C)C2=O [Analog F47, 5-methoxy-2-methyl-1,4-naphthoquinone]",105,104,104,107,105,105,106,109,78.8,11.1,–,–,–,–,–
"CC1=CC(=O)c2c(OCCCCI)cccc2C1=O [Analog F48, 5-(4-iodobutoxy)-2-methyl-1,4-naphthoquinone]",103,102,102,102,109,112,115,103,11,10,–,–,–,–,–
"CN(C)CCc1ccc(OC2=CC(=O)c3ccccc3C2=O)cc1 [Analog F11, 2-(4-(2-dimethylaminoethyl)phenoxy)-1,4-naphthoquinone]",–,99.6,93.4,79.2,61.3,46,36.4,22.8,9.33,–,12.3,–,–,–,–
